We go through 24 molecules from ChEMBL document CHEMBL4477255, “Charting the chemical space around the (iso)indoline scaffold, a comprehensive approach towards multitarget directed ligands” (Bioorg Med Chem Lett, 2016).

What all share (assay type): cell-based
In test [1] the target is T1, 5-hydroxytryptamine receptor 6 (Homo sapiens, UniProt P50406). Briefly: Displacement of [3H]LSD from human recombinant 5-HT6 receptor expressed in CHO-K1 cells at 1 uM incubated for 3 hrs by scintillation counting analysis. For orientation: Loss of bound radioactivity is the signal in a displacement assay; it reports binding, not function.
T1 sequence (P50406 whole entry): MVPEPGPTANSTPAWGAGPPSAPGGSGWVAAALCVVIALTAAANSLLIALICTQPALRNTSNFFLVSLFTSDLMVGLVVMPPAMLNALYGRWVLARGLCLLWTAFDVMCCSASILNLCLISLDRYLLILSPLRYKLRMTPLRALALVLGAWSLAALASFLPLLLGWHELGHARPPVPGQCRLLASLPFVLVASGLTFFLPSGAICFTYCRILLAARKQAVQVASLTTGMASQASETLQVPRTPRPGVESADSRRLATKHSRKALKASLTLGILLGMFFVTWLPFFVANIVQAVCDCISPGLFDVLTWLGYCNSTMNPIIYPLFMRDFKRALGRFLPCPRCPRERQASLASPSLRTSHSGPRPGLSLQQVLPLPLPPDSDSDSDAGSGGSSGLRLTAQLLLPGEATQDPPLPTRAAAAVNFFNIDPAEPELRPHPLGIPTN
The target of test [2] is T2, D(3) dopamine receptor (Homo sapiens, UniProt P35462). In words: Displacement of [3H]raclopride from human recombinant dopamine D3 receptor expressed in CHO-K1 cells at 1 uM incubated for 120 mins by liquid scintillation counting analysis.
T2 sequence (P35462 whole entry): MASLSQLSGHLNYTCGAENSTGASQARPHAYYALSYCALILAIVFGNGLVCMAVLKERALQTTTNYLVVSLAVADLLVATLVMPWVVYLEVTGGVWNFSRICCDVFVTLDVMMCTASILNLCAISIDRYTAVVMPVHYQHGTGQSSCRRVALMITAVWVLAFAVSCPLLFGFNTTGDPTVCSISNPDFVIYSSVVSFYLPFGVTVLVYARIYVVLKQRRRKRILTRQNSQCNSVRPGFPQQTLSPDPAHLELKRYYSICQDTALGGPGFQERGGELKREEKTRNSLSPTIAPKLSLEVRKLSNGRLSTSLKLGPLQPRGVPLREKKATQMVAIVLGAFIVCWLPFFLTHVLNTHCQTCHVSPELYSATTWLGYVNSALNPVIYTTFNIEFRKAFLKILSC
The target in test [3] is T3, D(2) dopamine receptor (Homo sapiens, UniProt P14416). Briefly: Displacement of [3H]raclopride from human recombinant dopamine D2 long receptor expressed in CHO-K1 cells at 1 uM incubated for 120 mins by scintillation counting analysis.
T3 sequence (P14416 whole entry): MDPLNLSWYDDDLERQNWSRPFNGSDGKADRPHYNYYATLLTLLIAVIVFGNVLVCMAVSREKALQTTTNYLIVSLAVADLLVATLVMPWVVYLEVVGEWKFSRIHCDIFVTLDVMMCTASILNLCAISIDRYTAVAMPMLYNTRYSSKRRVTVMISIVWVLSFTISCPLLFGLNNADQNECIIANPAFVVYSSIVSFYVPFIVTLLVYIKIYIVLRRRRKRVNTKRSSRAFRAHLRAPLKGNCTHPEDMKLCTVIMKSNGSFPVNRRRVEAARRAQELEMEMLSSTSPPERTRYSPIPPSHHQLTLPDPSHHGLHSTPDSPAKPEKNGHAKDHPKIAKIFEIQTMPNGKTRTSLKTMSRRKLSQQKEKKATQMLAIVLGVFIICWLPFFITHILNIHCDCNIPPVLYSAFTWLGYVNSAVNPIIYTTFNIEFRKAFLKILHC
Test [4] concerns the target T4, Histamine H3 receptor (Homo sapiens, UniProt Q9Y5N1). Briefly: Displacement of N-alpha-[methyl-3H]methylhistamine dihydrochloride from human recombinant histamine H3 receptor expressed in CHO-K1 cells at 1 uM incubated for 30 mins by liquid scintillation counting analysis.
The target in test [5] is T1, 5-hydroxytryptamine receptor 6. Briefly: Displacement of [3H]LSD from human recombinant 5-HT6 receptor expressed in CHO-K1 cells incubated for 3 hrs by scintillation counting analysis.
In test [6] the target is T2, D(3) dopamine receptor. Briefly: Displacement of [3H]raclopride from human recombinant dopamine D3 receptor expressed in CHO-K1 cells incubated for 120 mins by liquid scintillation counting analysis.
For test [7], the target named is T3, D(2) dopamine receptor. In words: Displacement of [3H]raclopride from human recombinant dopamine D2 long receptor expressed in CHO-K1 cells incubated for 120 mins by scintillation counting analysis.
For test [8], the target named is T4, Histamine H3 receptor. Briefly: Displacement of N-alpha-[methyl-3H]methylhistamine dihydrochloride from human recombinant histamine H3 receptor expressed in CHO-K1 cells incubated for 30 mins by liquid scintillation counting analysis.
The species named for test [9] is Homo sapiens. In words: Selectivity index, ratio of Ki for human recombinant dopamine D3 receptor expressed in CHO-K1 cells to Ki for dopamine D2 long receptor expressed in CHO-K1 cells.
The species named for test [10] is Homo sapiens. Briefly: Selectivity index, ratio of Ki for human recombinant dopamine D3 receptor expressed in CHO-K1 cells to Ki for human recombinant 5-HT6 receptor expressed in CHO-K1 cells.
The species named for test [11] is Homo sapiens. Briefly: Selectivity index, ratio of Ki for human recombinant dopamine D2 long receptor expressed in CHO-K1 cells to Ki for human recombinant 5-HT6 receptor expressed in CHO-K1 cells.
For test [12], the species on record is Homo sapiens. In words: Selectivity index, ratio of Ki for human recombinant histamine H3 receptor expressed in CHO-K1 cells to Ki for human recombinant 5-HT6 receptor expressed in CHO-K1 cells.

T4 sequence (Q9Y5N1 whole entry): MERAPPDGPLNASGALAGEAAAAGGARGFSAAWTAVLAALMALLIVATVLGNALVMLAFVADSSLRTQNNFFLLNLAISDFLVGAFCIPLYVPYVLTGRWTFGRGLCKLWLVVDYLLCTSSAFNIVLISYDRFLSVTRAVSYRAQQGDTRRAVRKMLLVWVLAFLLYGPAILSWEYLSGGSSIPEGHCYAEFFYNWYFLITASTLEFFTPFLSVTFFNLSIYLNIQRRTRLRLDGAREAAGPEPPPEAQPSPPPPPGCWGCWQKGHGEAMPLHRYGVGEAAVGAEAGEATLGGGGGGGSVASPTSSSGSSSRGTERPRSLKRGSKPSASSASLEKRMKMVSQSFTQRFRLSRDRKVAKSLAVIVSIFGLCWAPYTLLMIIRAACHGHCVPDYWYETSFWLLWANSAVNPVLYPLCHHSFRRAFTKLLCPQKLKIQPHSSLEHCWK

Regarding `CCN1CCN(c2cccc3c2CCN3S(=O)(=O)c2ccccc2)CC1`, the inhibition (as a rule, the drop in the measured response relative to a control, in per cent) in [1] came out at 89%; on D(3) dopamine receptor [2], 91%; at D(2) dopamine receptor [3], 80%; at Histamine H3 receptor [4], 50%. Also, the Ki – broadly, the equilibrium dissociation constant of an inhibitor or competing ligand from its target – in test [5] was 31 nM; at D(3) dopamine receptor [6], 72 nM; on D(2) dopamine receptor [7], 84 nM; at Histamine H3 receptor [8], 344 nM. For the same molecule, in the test filed under Homo sapiens [9], the Ratio Ki was 1.5.
With `CN1CCC(c2ccc3c(c2)N(S(=O)(=O)c2ccccc2)CC3)CC1`, the inhibition came to 93% in test [1], 75% at D(3) dopamine receptor [2], 34% on D(2) dopamine receptor [3] and 3% at Histamine H3 receptor [4]. Moreover, the Ki in test [5] was determined as 25 nM; at D(3) dopamine receptor [6], 121 nM. Also, the Ratio Ki in the test listed under Homo sapiens [9] was below 10.
On to `CCN1CCN(c2ccc3c(c2)N(S(=O)(=O)c2ccccc2)CC3)CC1`, for which the inhibition in [1] is 86%; at D(3) dopamine receptor [2], 95%; on D(2) dopamine receptor [3], 77%; at Histamine H3 receptor [4], 20%. Moreover, the Ki worked out at 60 nM in [5], 16 nM on D(3) dopamine receptor [6] and 136 nM at D(2) dopamine receptor [7]. Besides, in the test listed under Homo sapiens [9], the Ratio Ki was below 10.
With `CCN1CCC(c2ccc3c(c2)CCN3S(=O)(=O)c2ccccc2)CC1`, the inhibition in test [1] was 40%; on D(3) dopamine receptor [2], 72%; on D(2) dopamine receptor [3], 17%; at Histamine H3 receptor [4], 54%. In addition, the Ki is 321 nM on D(3) dopamine receptor [6] and 448 nM on Histamine H3 receptor [8].
Consider `O=S(=O)(c1ccccc1)N1CCc2ccc(N3CCNCC3)cc21`, for which the inhibition was 95% in test [1], 58% at D(3) dopamine receptor [2], 32% at D(2) dopamine receptor [3] and 4% on Histamine H3 receptor [4]. For the same molecule, the Ki in test [5] stood at 12 nM; at D(3) dopamine receptor [6] it was 330 nM. Also, the Ratio Ki in the test filed under Homo sapiens [9] is below 10.
For the molecule `O=S(=O)(c1ccccc1)N1Cc2cccc(C3CCNCC3)c2C1`, the inhibition in test [1] was found to be 101%; at D(3) dopamine receptor [2], 16%; on D(2) dopamine receptor [3] it was 17%; at Histamine H3 receptor [4], 4%. Also, in [5], the Ki was found to be 0.43 nM. In addition, the Ratio Ki in the test filed under Homo sapiens [10], in the test listed under Homo sapiens [11] and in the test listed under Homo sapiens [12] was above 100 in each case.
As to `O=S(=O)(c1ccccc1)N1CCc2ccc(C3CCNCC3)cc21`, the inhibition in [1] was 91%; on D(3) dopamine receptor [2], 49%; at D(2) dopamine receptor [3] it was 27%; on Histamine H3 receptor [4], -6%. Moreover, the Ki was 2.7 nM in [5] and 517 nM at D(3) dopamine receptor [6]. The Ratio Ki in the test filed under Homo sapiens [9] was below 10.
With `CCCN1CCN(c2ccc3c(c2)N(S(=O)(=O)c2ccccc2)CC3)CC1`, the inhibition in test [1] came to 82%; on D(3) dopamine receptor [2] it was 99%; at D(2) dopamine receptor [3], 80%; on Histamine H3 receptor [4], 16%. Further, the figures for the Ki (in test [5]; at D(3) dopamine receptor [6]; on D(2) dopamine receptor [7]) were 125 nM, 5.7 nM and 95 nM, respectively. Moreover, the Ratio Ki in the test listed under Homo sapiens [9] is below 10.
`CCN1CCC(c2cccc3c2CCN3S(=O)(=O)c2ccccc2)CC1`: the inhibition in test [1] came to 59%; at D(3) dopamine receptor [2], 58%; at D(2) dopamine receptor [3], 25%; at Histamine H3 receptor [4], 50%. The Ki in [5] was found to be 170 nM; on D(3) dopamine receptor [6], 591 nM; at Histamine H3 receptor [8], 317 nM.
Turning to `O=S(=O)(c1ccccc1)N1CCc2ccc(C3CCN(C4CCC4)CC3)cc21`, the inhibition came out at 62% in test [1], 59% on D(3) dopamine receptor [2], 29% at D(2) dopamine receptor [3] and 1% at Histamine H3 receptor [4]. The Ki is 527 nM in [5] and 362 nM at D(3) dopamine receptor [6]. In the test filed under Homo sapiens [9], the Ratio Ki was below 10.
On to `CCCN1CCN(c2cccc3c2CCN3S(=O)(=O)c2ccccc2)CC1`, for which the inhibition was 78% in [1], 97% on D(3) dopamine receptor [2], 87% on D(2) dopamine receptor [3] and 27% at Histamine H3 receptor [4]. The Ki was found to be 74 nM in test [5], 17 nM at D(3) dopamine receptor [6] and 42 nM on D(2) dopamine receptor [7]. Moreover, the Ratio Ki in the test filed under Homo sapiens [9] is 1.5.
In the case of `CCCN1CCC(c2ccc3c(c2)N(S(=O)(=O)c2ccccc2)CC3)CC1`, the inhibition in [1] is 81%; at D(3) dopamine receptor [2], 98%; at D(2) dopamine receptor [3] it was 59%; at Histamine H3 receptor [4] it was 14%. Also, the Ki in test [5] is 71 nM; at D(3) dopamine receptor [6], 26 nM; at D(2) dopamine receptor [7] it was 324 nM. For the same molecule, the Ratio Ki in the test filed under Homo sapiens [9] is below 10.
Consider `O=S(=O)(c1ccccc1)N1CCc2c(N3CCN(C4CCC4)CC3)cccc21`, for which the inhibition in test [1] came out at 51%; on D(3) dopamine receptor [2], 60%; on D(2) dopamine receptor [3] it was 60%; at Histamine H3 receptor [4], 59%. Besides, the Ki in [5] worked out at 266 nM; on D(3) dopamine receptor [6], 449 nM; at D(2) dopamine receptor [7], 355 nM; at Histamine H3 receptor [8], 580 nM.
Turning to `CCN1CCN(c2ccc3c(c2)CCN3S(=O)(=O)c2ccccc2)CC1`, the inhibition in test [1] was 53%; at D(3) dopamine receptor [2], 94%; on D(2) dopamine receptor [3], 50%; on Histamine H3 receptor [4] it was 65%. The Ki in test [5] came out at 129 nM; at D(3) dopamine receptor [6], 48 nM; at D(2) dopamine receptor [7], 438 nM; at Histamine H3 receptor [8], 280 nM.
As for `CCN1CCN(c2ccc3c(c2)CN(S(=O)(=O)c2ccccc2)C3)CC1`, the inhibition in test [1] is -7%; at D(3) dopamine receptor [2] it was 61%; on D(2) dopamine receptor [3], 22%; at Histamine H3 receptor [4], 60%. The Ki at D(3) dopamine receptor [6] is 688 nM; at Histamine H3 receptor [8], 294 nM.
Regarding `O=S(=O)(c1ccccc1)N1CCc2c(C3CCN(C4CCC4)CC3)cccc21`, the inhibition stood at 1% in [1], 9% at D(3) dopamine receptor [2], 48% on D(2) dopamine receptor [3] and 82% on Histamine H3 receptor [4]. The Ki on D(2) dopamine receptor [7] was determined as 1040 nM; at Histamine H3 receptor [8] it was 214 nM.
As to `CCN1CCC(c2ccc3c(c2)CN(S(=O)(=O)c2ccccc2)C3)CC1`, the inhibition in test [1] worked out at 4%; on D(3) dopamine receptor [2] it was 32%; on D(2) dopamine receptor [3] it was 18%; at Histamine H3 receptor [4], 48%. The Ki at Histamine H3 receptor [8] was determined as 302 nM.
In the case of `O=S(=O)(c1ccccc1)N1Cc2ccc(N3CCN(C4CCC4)CC3)cc2C1`, the inhibition is 1% in test [1], 34% at D(3) dopamine receptor [2], 1% on D(2) dopamine receptor [3] and 74% at Histamine H3 receptor [4]. The Ki at Histamine H3 receptor [8] was 395 nM.
With `CN1CCC(c2cccc3c2CN(S(=O)(=O)c2ccccc2)C3)CC1`, the inhibition is 94% in [1], 14% at D(3) dopamine receptor [2], 14% at D(2) dopamine receptor [3] and 14% at Histamine H3 receptor [4]. For the same molecule, the Ki in [5] was 9 nM. Moreover, the Ratio Ki in the test listed under Homo sapiens [10], in the test filed under Homo sapiens [11] and in the test listed under Homo sapiens [12] was above 100 each time.
Turning to `CN1CCN(c2ccc3c(c2)N(S(=O)(=O)c2ccccc2)CC3)CC1`, the inhibition in test [1] was 92%; at D(3) dopamine receptor [2] it was 72%; at D(2) dopamine receptor [3], 52%; at Histamine H3 receptor [4], -7%. Further, the Ki worked out at 25 nM in test [5], 68 nM at D(3) dopamine receptor [6] and 458 nM at D(2) dopamine receptor [7]. Besides, the Ratio Ki in the test listed under Homo sapiens [9] is below 10.
`CN1CCN(c2cccc3c2CCN3S(=O)(=O)c2ccccc2)CC1`: the inhibition in [1] came to 96%; on D(3) dopamine receptor [2], 77%; at D(2) dopamine receptor [3], 67%; on Histamine H3 receptor [4] it was 17%. The results for the Ki (in [5]; at D(3) dopamine receptor [6]; on D(2) dopamine receptor [7]) were 8.2 nM, 173 nM and 211 nM, respectively. The Ratio Ki in the test listed under Homo sapiens [9] was 1.5.
For the molecule `O=S(=O)(c1ccccc1)N1CCc2ccc(N3CCN(C4CCC4)CC3)cc21`, the inhibition amounted to 60% in test [1], 78% at D(3) dopamine receptor [2], 50% at D(2) dopamine receptor [3] and 36% on Histamine H3 receptor [4]. Further, the Ki in [5] turned out to be 186 nM; on D(3) dopamine receptor [6] it was 173 nM; on D(2) dopamine receptor [7] it was 411 nM. In the test filed under Homo sapiens [9], the Ratio Ki is below 10.
Take `CN1CCC(c2ccc3c(c2)CCN3S(=O)(=O)c2ccccc2)CC1`: the inhibition came out at 86% in [1], 48% at D(3) dopamine receptor [2], 14% on D(2) dopamine receptor [3] and 59% on Histamine H3 receptor [4]. The Ki in [5] was 128 nM; at D(3) dopamine receptor [6] it was 401 nM; at Histamine H3 receptor [8], 299 nM.
Consider `CCN1CCC(c2ccc3c(c2)N(S(=O)(=O)c2ccccc2)CC3)CC1`, for which the inhibition in test [1] came out at 95%; on D(3) dopamine receptor [2], 86%; on D(2) dopamine receptor [3] it was 39%; on Histamine H3 receptor [4] it was 11%. The Ki was determined as 23 nM in [5] and 95 nM on D(3) dopamine receptor [6]. Further, the Ratio Ki in the test listed under Homo sapiens [9] is below 10.
